Patent US11840495B2, “Compositions and methods related to di-substituted bicyclo[2.2.1] heptanamine-containing compounds” (The Broad Institute, Inc., priority 2020, dated 2023)
Structures can show the parent of a compound that is named as a salt. Where two headings read alike, the source gives them in different places.

What was measured:
MUC1-fs = assay: Immunofluorescence imaging of MUC1-fs in P cells (Example 2); format: cell-based; conditions: for EC50: 48 hr incubation, MUC1-fs; for Emax / ECMax (%): 48 hr; for Emax: DMSO = 0, JQ1 = −100% activity, in %; for ECMax (%): DMSO = 0, JQ1 (250 nM) = −100% activity
Procedure: (§1) P cells were seeded 24 hr prior to compound treatment at a density of 12,000 cells/well in 384 well Cell Carrier Ultra plates (6057308, Perkin Elmer), pre-coated with 0.25 mg/mL Synthemax II SC Substrate (3535, Corning). Compounds were used at 5 doses (35, 3.5, 0.35, 0.035 and 0.0035 μM) for the primary screen and 10 doses (16, 5.6, 1.8, 0.6, 0.21, 0.07, 0.02, 0.008, 0.002 and 0.0008 μM) for the following screens. The compounds, in two replicates, were transferred from compound source plates to the cell plates using the HighRes Pin Tool. DMSO was used as a negative control and JQ1 (250 nM) (a bromodomain inhibitor) was chosen as a positive control, based on earlier studies showing its potent effect on reducing total MUC1 mRNA levels (data not shown). After 48 hr incubation, cells were fixed for 20 min in 4% PFA (Electron Microscopy Sciences) in PBS, washed twice, then permeabilized (10 min) with 0.5% Triton-X100 (X100-100ML, Sigma-Aldrich) in PBS and washed once more. Cells were blocked for 10 min at RT with Blocking solution (100 mM Tris HCL pH8; 150 mM NaCL; 5 g/L Blocking Reagent [11096176001, Roche]), then incubated 90 min at RT with one of the following primary antibodies in Roche Blocking solution: 1:500, monoclonal Fab-A-VSH anti-MUC1-fs, AbD22655.2, Bio-Rad; 1:2000, monoclonal mouse anti-MUC1 (214D4), 05-652-KC, Millipore; 1:1000, monoclonal, Rabbit anti-GM130 (D6B1) XP, 12480, Cell signaling technology. The primary antibody cocktail was incubated at RT for 1.5 hr, followed by four PBS wash cycles. The secondary antibody cocktail contained four components that were all prepared at a 1:1000 dilution in the Roche blocking solution and consisted of Alexa Fluor® 488-conjugated AffiniPure F(ab′)2 Fragment Goat anti-Human IgG, 109-546-097, Jackson Immunoresearch; Alexa Fluor® 647-conjugated Goat anti-Rabbit IgG, A-21246, Thermo Fisher Scientific®; Alexa Fluor® 546 Goat anti-mouse IgG, A-21123, Thermo Fisher Scientific® and Hoechst 33342 stain (62249, Thermo Fisher Scientific®). The secondary antibody cocktail was incubated at RT for 45 min, followed by four PBS wash cycles. Finally, plates were sealed with a Plate Loc plate and stored in Liconic incubator at 10° C. until imaging. Following image analysis, three parameters were selected, i) MUC1-fs and ii) MUC1-wt total cytoplasm intensity (averaged per cell) and iii) cell number as was detected by Hoechst 33342 stained nuclei. The levels of MUC1-fs and MUC1-wt found following DMSO and JQ1 were defined as 0 and −100% activity, respectively. The values obtained for all compounds were normalized accordingly. Cell number was normalized to DMSO control.

MUC1-wt = assay: Immunofluorescence imaging of MUC1-wt in P cells (Example 2); format: cell-based; conditions: for EC50: 48 hr incubation, MUC1-wt; for WT EMax / WT ECMax (%): 48 hr; for WT EMax: DMSO = 0, JQ1 = −100% activity, in %; for WT ECMax (%): DMSO = 0, JQ1 (250 nM) = −100% activity
Procedure: as §1

Row | Compound | EC50 (MUC1-fs; read-out: EC50) [µM] | Emax (MUC1-fs) | EC50 (MUC1-wt; read-out: WT EC50) [µM] | WT EMax (MUC1-wt) | EC50 (MUC1-fs; read-out: EC50(Spot)) [µM] | ECMax (%) (MUC1-fs) | EC50 (MUC1-wt; read-out: WT EC50 (Cytoplasm)) [µM] | WT ECMax (%) (MUC1-wt) | other results
1 | Cl.N[C@@H]1[C@@H]2CC[C@@H](C2)C12CCC[C@H](O)C2 (stereo partly drawn) [Compound 241-A, (1S,3R,3′S,4R)-3-aminospiro[bicyclo[2.2.1]heptane-2,1′-cyclohexan]-3′-ol hydrochloride] | > 16 | −11.4 | > 16 | −5.7 | – | – | – | – | –
2 | Cl.N[C@H]1[C@@H]2CC[C@@H](C2)C12CCCCC2 [Compound 231, (1S,3S,4R)-spiro[bicyclo[2.2.1]heptane-2,1′-cyclohexan]-3-amine hydrochloride] | 1.63 | −76.5 | > 16 | −7.0 | – | – | – | – | –
3 | Cl.NC(=O)C1CCCC2(C1)C1CCC(C1)C2N (racemic) [Compound 224, rac-3-aminospiro[bicyclo[2.2.1]heptane-2,1′-cyclohexane]-3′-carboxamide hydrochloride] | > 16 | −17.0 | > 16 | −24.4 | – | – | – | – | –
4 | Cl.NC1C2CCC(C2)C12CC1CCC2C1 (racemic) [Compound 238, rac-2,2′-spirobi[bicyclo[2.2.1]heptan]-3-amine hydrochloride] | – | −96.4 | – | 68.9 | – | – | – | – | EC50 (MUC1-fs; hydrochloride, read-out: EC50): 0.032 µM; EC50 (MUC1-wt; hydrochloride, read-out: WT EC50): 0.74 µM
5 | NC1C2CCC(C2)C12CCC(O)C2 (racemic) [Compound 249B, rac-3-aminospiro[bicyclo[2.2.1]heptane-2,1′-cyclopentan]-3′-ol] | 4.14 | −72.5 | > 16 | −6.7 | – | – | – | – | –
6 | Cl.N[C@@H]1[C@@H]2CC[C@@H](C2)C12CCC2 (racemic) [Compound 208, rac-spiro[bicyclo[2.2.1]heptane-3,1′-cyclobutan]-2-endo-amine hydrochloride] | – | – | – | – | 0.13 | −65.35 | > 5.6 | ~125 | –
7 | CC1(CC2CC2)C2CCC(C2)C1N.Cl (racemic) [Compound 244, rac-3-(cyclopropylmethyl)-3-methylbicyclo[2.2.1]heptan-2-amine hydrochloride] | > 16 | – | > 16 | – | – | – | – | – | Emax (MUC1-fs; hydrochloride): −35.0; WT EMax (MUC1-wt; hydrochloride): −9.0
8 | (1R,3S,4S)-spiro[bicyclo[2.2.1]heptane-3,1′-cyclopentan]-2-amine hydrochloride [Compound 209-P1] | – | – | – | – | 0.04 | −70.66 | > 5.6 | −210 | –
9 | CCC1(CC)[C@@H]2CC[C@@H](C2)[C@@H]1N [Compound 204-P2] | – | – | – | – | 0.02 | −90.34 | 1.09 | 65.02 | –
10 | CC[C@]1(C)[C@H]2CC[C@H](C2)[C@H]1N.Cl (racemic) [Compound 202-rac] | – | – | – | – | 0.05 | −76.19 | 2.11 | 125.82 | –
11 | C[C@H]1CC[C@@]2(C1)[C@@H]1CC[C@@H](C1)[C@@H]2N.Cl [Compound 211-P2-A] | – | – | – | – | 20.1 | −23.56 | > 32 | 3.22 | –
12 | Cl.NCC1CCCC2(C1)C1CCC(C1)C2N (racemic) [Compound 221, rac-3′-(aminomethyl)spiro[bicyclo[2.2.1]heptane-2,1′-cyclohexan]-3-amine hydrochloride] | > 16 | 16.2 | > 16 | 15.6 | – | – | – | – | –
13 | CC[C@]1(Cc2ccccc2)[C@H]2CC[C@H](C2)[C@H]1N.Cl [Compound 219-P1, (1R,2R,3S,4S)-3-benzyl-3-ethylbicyclo[2.2.1]heptan-2-amine hydrochloride] | > 16 | 5.6 | > 16 | 12.4 | – | – | – | – | –
14 | C[C@@H]1CC[C@@]2(C1)[C@@H]1CC[C@@H](C1)[C@@H]2N.Cl [Compound 211-P2-B] | – | – | – | – | > 32 | −10.93 | > 32 | 4.75 | –
15 | Cl.NC1C2CCC(C2)C12CC=CC2 (racemic) [Compound 248, rac-spiro[bicyclo[2.2.1]heptane-2,1′-cyclopentan]-3′-en-3-amine hydrochloride] | 0.11 | −83.1 | 9.8 | 36.5 | – | – | – | – | –
16 | C[C@H]1CCC[C@]2(C1)[C@H]1CC[C@H](C1)[C@H]2N.Cl [Compound 214-P1-B] | – | – | – | – | 12.1 | −58.73 | > 32 | −12.08 | –
17 | NC1C2CCC(C2)C12CC1CC1C2 (racemic) [Compound 236, rac-spiro[bicyclo[2.2.1]heptane-2,3′-bicyclo[3.1.0]hexan]-3-amine] | 0.962 | −89.6 | > 16 | −20.3 | – | – | – | – | –
18 | CC(C)[C@@]1(C)[C@H]2CC[C@H](C2)[C@H]1N.Cl [Compound 246-A, (1R,2R,3S,4S)-3-isopropyl-3-methylbicyclo[2.2.1]heptan-2-amine hydrochloride] | 1.9 | −67.8 | > 16 | 20.7 | – | – | – | – | –
19 | C[C@@H]1CC[C@@]2(C1)[C@H]1CC[C@H](C1)[C@H]2N.Cl [Compound 210-P1-B] | – | – | – | – | 15.5 | −26.85 | > 32 | −4.05 | –
20 | CC1CCC2(CC1C)C1CCC(C1)C2N (racemic) [Compound 240, rac-3′,4′-dimethylspiro[bicyclo[2.2.1]heptane-2,1′-cyclohexan]-3-amine] | > 16 | −34.8 | > 16 | −11.1 | – | – | – | – | –
21 | NC1C2CCC(C2)C12CCCCC2 [Compound 212-P1, (1R,3S,4S)-spiro[bicyclo[2.2.1]heptane-3,1′-cyclohexan]-2-amine] | – | – | – | – | 1.57 | −65.18 | 3.01 | 110.73 | –
22 | NC1C2CCC(C2)C12CCCC2 (racemic) [Compound 232, rac-spiro[bicyclo[2.2.1]heptane-2,1′-cyclopentan]-3-amine] | 5.99 | −68.6 | > 16 | 6.6 | – | – | – | – | –
23 | CC1(N)C2CCC(C2)C12CCCC2 (racemic) [Compound 233, rac-3-methylspiro[bicyclo[2.2.1]heptane-2,1′-cyclopentan]-3-amine] | 0.077 | −86.9 | > 16 | 21.8 | – | – | – | – | –
24 | Cl.N[C@H]1[C@@H]2CC[C@@H](C2)C12CCCC(C(=O)N1CCCCC1)C2 (stereo partly drawn) [Compound 227-1, ((1S,3S,4R)-3-aminospiro[bicyclo[2.2.1]heptane-2,1′-cyclohexan]-3′-yl)(piperidin-1-yl)methanone hydrochloride] | 3.6 | −79.5 | > 16 | −7.0 | – | – | – | – | –
25 | CC1(C)[C@H]2CC[C@H](C2)[C@H]1N (single isomer, unassigned) [Compound 201-P1, hydrochloride] | – | – | – | – | 0.088 | −94.91 | 10.3 | 63 | –
26 | C[C@@H]1CC[C@]2(C1)[C@@H]1CC[C@@H](C1)[C@@H]2N.Cl [Compound 210-P2-A] | – | – | – | – | 1.04 | −62.63 | > 32 | −8.9 | –
27 | (1S,3R,4R)-spiro[bicyclo[2.2.1]heptane-3,1′-cyclohexan]-2-amine [Compound 212-P2] | – | – | – | – | 0.01 | −68.36 | 2.6 | 183.41 | –
28 | CC12CC3(CC1(C)C2)C1CCC(C1)C3N.Cl (racemic) [Compound 237, rac-1′,5′-dimethylspiro[bicyclo[2.2.1]heptane-2,3′-bicyclo[3.1.0]hexan]-3-amine hydrochloride] | 13.3 | −45.1 | > 16 | −10.0 | – | – | – | – | –
